Experimental data published in ChEMBL document CHEMBL4385590, “A Survey of the Structures of US FDA Approved Combination Drugs” (J Med Chem, 2019).

Assay: Half-life in human serum administered once daily

Nc1nc(=O)n([C@@H]2CS[C@H](CO)O2)cc1F [EMTRICITABINE]
half-life: 10 h
